As a reminder, the inhibition is the change of the read-out against control, counted positive when it falls. By IC50 is commonly meant the point on the concentration scale where inhibition reaches its midpoint.

Here are results for two compounds from article PMC11941218, “Juglone-Bearing Thiopyrano[2,3-d]thiazoles Induce Apoptosis in Colorectal Adenocarcinoma Cells” (Cells, 2025).

The test system of assay [1] is HT-29 colorectal adenocarcinoma cells. Briefly: Intracellular total ROS activity assay (flow cytometry). The format is cell-based, human. To be noted: HT-29, 24 h; control 3.8%. The method, then: Total reactive oxygen species (ROS) activity was assessed using an Intracellular Total ROS Activity Assay Kit. Following 24 h incubation with studied derivatives, HT-29 cells were prepared for analysis with the flow cytometer according to the protocol detailed in the literature. The cells were washed twice with cold PBS, followed by the addition of the assay buffer provided in the kit. The cells, at a concentration of 1 × 10⁶ cells/mL, were then exposed to 10 µL of Total ROS Green reagent and incubated for one hour at 37 °C in a CO2 incubator. After the incubation period, the cells were rinsed with the assay buffer. Finally, the cells were resuspended in 500 µL of assay buffer and analyzed using a BD FACSCanto II flow cytometer in conjunction with FACSDiva 6.1.3 software (both BD Biosciences Systems, San Jose, CA, USA). The BD Cytometer Setup and Tracking Beads (BD Biosciences, San Diego, CA, USA) were used for calibration.
In general terms: Flow cytometry measures light scatter and fluorescence of single cells or particles in a stream.

For assay [2], the system named is DLD-1 colorectal adenocarcinoma cells. Briefly: Colony forming (clonogenic) assay. Format: cell-based, human. To be noted: for inhibition of colony formation: DLD-1, 2.5 µM; for inhibition at 1 µM / IC50: Homo sapiens; for inhibition at 1 µM: DLD-1, 1 µM, read-out: inhibition of colony formation; for IC50: DLD-1, 72 h treatment, 14 days of incubation, M ± SD, n = 3. The method, then:
(§1) For colony forming assay, HT-29 and DLD-1 cells were seeded in 12-well plates at a density of 500 cells in 2 mL of growth medium per well. After overnight incubation, the cells were exposed to the compounds Les-6547, Les-6557, and doxorubicin at concentrations ranging from 0.1 to 100 µM for 72 h. Following treatment, the medium was replaced with fresh medium without the compounds. After 14 days of culture, cells were rinsed with PBS and fixed with cold methanol for 10 min. Subsequently, the cells were stained with a 0.1% crystal violet solution for 10 min. After washing, the plates were allowed to dry at room temperature. Numbers of colonies were quantified using ImageJ software (version 1.5.4; National Institutes of Health, Bethesda, MD, USA). The effect of the compounds on the colony-forming capacity was calculated as a percentage of colonies relative to the untreated control group.

Assay [3] concerns HT-29 colorectal adenocarcinoma cells. Briefly: Colony forming (clonogenic) assay. Format: cell-based, human. To be noted: for inhibition of colony formation: HT-29, 2.5 µM; for inhibition at 1 µM / IC50: Homo sapiens; for inhibition at 1 µM: HT-29, 1 µM, read-out: inhibition of colony formation; for IC50: HT-29, 72 h treatment, 14 days of incubation, n = 3. The method, then: as §1

The test system is the same in assay [4]. In words: Cell cycle analysis (PI, flow cytometry). Format: cell-based, human. To be noted: HT-29, 24 h; Les-6547 5 μM, Les-6557 10 μM. The method, then: Cell cycle analysis of HT-29 cells treated with Les-6547 (5 µM) and Les-6557 (10 µM) for 24 h was conducted utilizing a FACSCanto II flow cytometer. Following the incubation period, the cells were detached using trypsin, collected, and fixed in cold ethanol (70%) before being stored at −20 °C for up to three days. Cells were then processed for flow cytometry analysis as previously described. Fixed cells were washed with cold PBS and centrifuged at 2000 rpm for 10 min, and the supernatant was discarded. The cell pellet was resuspended in PBS with 50 μg/mL DNase-free RNase A Solution and stained with 100 μg/mL PI for 30 min at 37 °C in the dark. After washing, the cells were resuspended in PBS. Cell cycle distribution was analyzed using a BD FACSCanto II flow cytometer (10,000 events) and FACSDiva 6.1.3 software (both BD Biosciences Systems, San Jose, CA, USA), followed by analysis with FCS Express 7 software (De Novo Software, Pasadena, CA, USA). The system was calibrated using a BD Cytometer Setup and Tracking Beads (BD Biosciences, San Diego, CA, USA).

The subject of assay [5] is HaCaT (human keratinocytes). Briefly: MTT assay. Format: cell-based. To be noted: 72 h, M ± SD, n = 3. The method, then:
(§2) DLD-1, HaCaT, and Balb/c 3T3 cells were maintained in DMEM, while HT-29 cells were grown in McCoy’s 5A medium with 10% FBS and 1% penicillin/streptomycin. All cell lines were incubated at 37 °C in a humidified atmosphere with 5% CO2. After detaching the cells with trypsin, they were quantified using a Scepter 3.0 automated cell counter (Millipore, Burlington, MA, USA).
(§3) The metabolic activity of cells exposed to the tested derivatives, doxorubicin, and DMSO, was assessed using an MTT assay according to the manufacturer’s protocol (Sigma-Aldrich, St. Louis, MO, USA). Adherent cells were seeded into 96-well plates (5000–10,000 cells in 100 µL of growth medium per well) and allowed to adhere overnight before treatment. For lymphocytes, activation with phytohemagglutinin-L (1 µg/mL) was performed for 24 h, after which they were seeded in 96-well plates at a density of 100,000 cells/well in RPMI-1640 medium supplemented with 20% FBS. The test substances, including Les-6547, Les-6557, and doxorubicin, were added to 100 µL of culture medium to achieve final concentrations of 0 µM, 0.1 µM, 1 µM, 2.5 µM, 10 µM, and 100 µM for all compounds, and the cells were further incubated for 24, 48, or 72 h. DMSO-treated cells served as the control. Then, 20 µL of MTT solution (5 mg/mL) was added and incubated for 2–4 h to allow formazan crystal formation. The formazan crystals were then solubilized by adding DMSO. The absorbance of formazan was measured at 570 nm using a ThermoScientific Evolution 201 UV-VIS spectrophotometer (ThermoFisher Scientific, Waltham, MA, USA). The control condition with 0.5% DMSO was considered 100% viability. The IC50 values for the compounds were determined using GraphPad Prism 8 and 9 software (GraphPad Software, Boston, MA, USA).
On the technique in general: Tetrazolium dyes change colour on reduction, which living cells bring about.

Assay [6] deals with HT-29 colorectal adenocarcinoma cells. In words: MTT assay. The format is cell-based. To be noted: Homo sapiens. The method, then: as §2, §3
Assay [7] relates to Balb/c 3T3 (mouse fibroblasts). Briefly: MTT assay. The format is cell-based. To be noted: BALB/c3T3, Balb/c 3T3, MTT, 72 h, M ± SD, n = 3. The method, then:
as §2, §3

The test system of a further assay is Human blood lymphocytes. In words: MTT assay. The format is cell-based. To be noted: for IC50: Lymphocyte, human blood lymphocytes, 72 h, M ± SD, n = 3; for decrease of viability compared to control cells: lymphocytes from a healthy donor, 100 µM. The method, then:
Lymphocytes from human peripheral blood were isolated with sodium heparin (10 U/mL) as an anticoagulant. Isolation was performed through a density gradient method with the Gradisol G, following a modified procedure. Peripheral blood was mixed with Gradisol G in equal proportions (1:1) and centrifuged at 400× g for 30 min at room temperature. The cells were collected, washed in phosphate-buffered saline (PBS), and treated with a hypotonic solution to remove residual erythrocytes. Lymphocytes were activated by phytohemagglutinin-L (1 µg/mL) and cultured in RPMI-1640 medium supplemented with 20% fetal bovine serum under controlled conditions of 95% air and 5% CO2 [27].
as §3

Setting [8] is: HT-29, MTT, 24, 48 and 72 h, read-out: IC50 (range over incubation times).
Where [9] appears, read: HT-29, MTT, 24 h, M ± SD, n = 3, read-out: IC50.
[10] abbreviates: HT-29, MTT, 48 h, M ± SD, n = 3, read-out: IC50.
Setting [11] is: HT-29, MTT, 72 h, M ± SD, n = 3, read-out: IC50.

On to `O=C1C2=C(C(=O)c3c(O)cccc31)C(c1cc(Cl)ccc1O)c1sc(=O)[nH]c1S2` (stereo not drawn) [Les-6547], for which the “increase of the number of ROS-positive cells compared with the control cells” value in assay [1] is “approximately 10 fold”. Besides, the “inhibition of colony formation” value in assay [2] and in assay [3] was “completely inhibited colony formation” each time. The inhibition at 1 µM was found to be 99% in assay [2] and 100% in assay [3]. In addition, the IC50 was 0.4 ± 0.06 µM in assay [2]; around 0.5 µM in assay [3]; 89.64 ± 0.84 µM in assay [5]; 4.29 to 5.72 µM in assay [6] (setting [8]); 5.72 ± 0.41 µM in assay [6] (setting [9]); 4.29 ± 0.5 µM in assay [6] (setting [10]). For the same compound, the IC50 in assay [6] (setting [11]) was 4.44 ± 0.35 µM; in assay [7], 31.7 ± 0.41 µM; with Human blood lymphocytes, above 100 µM. In addition, the “cells in G1 phase” value in assay [4] is on record as 25.4%. Moreover, the “cells in G2/M phase” value in assay [4] is recorded as 39.9%. Moreover, the “cells in S phase” value in assay [4] was determined as 34.7%. In addition, the “decrease of viability compared to control cells” value with Human blood lymphocytes is on record as 25%.

Take `O=C1C2=C(C(=O)c3c(O)cccc31)C(c1ccc(Cl)cc1)c1sc(=O)[nH]c1S2` (stereo not drawn) [Les-6557]: the “increase of the number of ROS-positive cells compared with the control cells” value in assay [1] was “approximately 10 fold”. In addition, the “inhibition of colony formation” value in assay [2] and in assay [3] was “completely inhibited colony formation” throughout. Also, the inhibition at 1 µM came to 99% in assay [2] and 100% in assay [3]. Moreover, the IC50 is 0.33 ± 0.05 µM in assay [2]; around 0.5 µM in assay [3]; 68.37 ± 0.57 µM in assay [5]; 6.54 to 10.4 µM in assay [6] (setting [8]); 10.4 ± 0.23 µM in assay [6] (setting [9]); 6.54 ± 0.07 µM in assay [6] (setting [10]). For the same compound, the 50% inhibitory concentration (IC50) in assay [6] (setting [11]) was 9.78 ± 0.03 µM; in assay [7], 40.26 ± 0.35 µM; in the assay with Human blood lymphocytes it was above 100 µM. Moreover, the “cells in G1 phase” value in assay [4] is listed as 19.2%. Moreover, the “cells in G2/M phase” value in assay [4] worked out at 28.8%. Further, the “cells in S phase” value in assay [4] worked out at 51.3%. For the same compound, in the assay on Human blood lymphocytes, the “decrease of viability compared to control cells” value turned out to be 25%.
